Here are results for one compound from patent publication US9926293B2, “Multivalent RAS binding compounds” (THE TRUSTEES OF COLUMBIA UNIVERSITY IN THE CITY OF NEW YORK, priority 2014, dated 2018).

Each structure is given as a SMILES string.

The target in data set [1] is T1, GppNHp-loaded RALA (Homo sapiens, UniProt P11233).
T1 construct: purchased Abcam ab102555
Briefly: Microscale thermophoresis on GppNHp-loaded RALA. Format: binding. Particulars: MST, up to 190 μM. The protocol: (§1) KRAS^G12D (250 μM) in 25 mM HEPES, 100 mM sodium chloride, 2 mM TCEP with 20 mM EDTA and 1 mM GppNHp was shaken at 220 rpm at 30° C. to remove the endogenous nucleotide, The solution was placed on ice for 2 minutes prior to the addition of 65 mM MgCl2. After an additional 10 minutes incubation on ice, 200 uL of a 10 uM solution of KRAS^G12D was combined with 200 uL of a 20 uM solution of NT-647-NHS-ester dye (from a 652.4 μM stock). The protein/dye mixture was rotated at 4° C. for 30 minutes, before being separated from the excess dye and buffer exchanged into 25 mM Tris, 100 mM sodium chloride, 2 mM TCEP, and 5 mM MgCl2 via a nap-5 column. The test compounds were arrayed across a 16-point dilution series consisting of 1.5% DMSO with 25 mM Tris, 100 mM NaCl, 2 mM TCEP, 5 mM MgCl2 and 0.05% tween-20. Thermophoretic movement of the fluorescently labeled protein with the inhibitors was performed using a Monolith NT.115 (Nanotemper Technologies). RALA and RHOA were purchased commercially from Abcam (RALA CN:ab102555, RHOA CN:ab101594).
(§2) To provide evidence that the compound indeed was selective for RAS GTPases, MST binding measurements were performed on GppNHp-loaded RHEB, RHOA and RALA (FIG. 14J).
(Microscale thermophoresis detects binding through changes in fluorescence in a small temperature gradient.)

The target in data set [2] is GppNHp-loaded RHEB (Homo sapiens, UniProt Q15382). Briefly: Microscale thermophoresis on GppNHp-loaded RHEB. The data set is classed as binding. Particulars: MST, up to 190 μM. How it is done: as §1, §2
Data set [3] relates to SW480 (KRAS^G12V). Briefly: Multicellular tumor spheroids in low adherence plates. The data set is classed as cell-based. Particulars: 72 hours. The protocol: Multicellular Tumor Spheroids
Multicellular tumor spheroids (MCTSs) were grown in 96-well Corningware Ultra Low Attachment (ULA) Plates (CLS 3474). 100 μL of cell suspension containing 2×10^4 cells/ml were added to each well of the ULA plate containing 100 μL of a 2× solution of the desired concentration of compounds. Cells were incubated at 37° C., 5% CO2 for 72 hours to allow for MCTS formation. After 72 hours, 50 μL of a 50% solution of Alamar blue and medium was added and incubated for 12 hours prior to measurements on a Victor3 plate reader as previously described.

The subject of data set [4] is MDA-MB-231 xenografts. The data set can be described thus: Mouse xenograft, therapeutic study. Format: in vivo, athymic nude mice. The protocol:
Eight week old nude female mice were injected with 7 million MDA-MB-231 cells.
For the therapeutic study, athymic nude mice (eight weeks; Charles River Laboratories) were injected with 7 million MDA-MB-231 cells subcutaneously. […] Tumor size was measured by electronic caliper every 2 days and calculated using the formula: 0.523×Length×width^2.

Data set [5] concerns MDA-MB-231 xenografts. Briefly: Mouse xenograft, pharmacodynamic study. Format: in vivo. How it is done: For the pharmacodynamic study, athymic nude mice (eight weeks; Charles River Laboratories) were injected with 8 million MDA-MB-231 cells subcutaneously. […] Tumor size was measured by electronic caliper every two days and calculated using the formula: 0.523×Length×width^2.
Mice were euthanized using a CO2 gas chamber before xenograft dissection. Tumors were then weighed, frozen and stored at −80° C. Segments of the tumor were taken (about 60 mg) and suspended in 120 μL lysis buffer. Xenografts were then lysed by sonication (40 amp for 10-15 seconds) and samples were centrifuged at 14,000 rpm at 4° C. for 30 minutes to remove unlysed cells and debris. The supernatant was then analyzed by Western blotting using the aforementioned protocol.

A short description of data set [6]: In vivo pharmacokinetic analysis. On the set-up: species or system male C57 adult mice. Particulars: male, C57, mouse, 20 mg/kg, plasma over 12 hours. How it is done:
In Vivo Pharmacokinetic Analysis
The dose formulation was prepared freshly in the morning of dosing day. A total of 42 male C57 adult mice, each approximately 25 grams in body weight, were administered at 20 mg/kg dose via a single IV bolus injection or a single oral gavage. Blood samples (approximately 400 μL) were collected from three mice per time point via terminal brachial bleed at pre-dose and 30 minutes, 1 hour, 2 hours, 4 hours, 8 hours and 12 hours post-dose. Blood samples were placed into tubes containing K2 EDTA anti-coagulant, and centrifuged at about 2,100 g (rcf) for 10 minutes at 4° C. to separate plasma. Following centrifugation, the resulting plasma was transferred to clean tubes and stored frozen at −80° C. The mouse plasma samples (50 μL) were aliquoted, spiked with internal standard (250 ng/mL tolbutamide), and then extracted with protein precipitation. The supernatant of each sample was diluted and injected into a LC-MS/MS system. The data acquisition and processing were performed using a Sciex API 5500 mass spectrometer with Analyst 1.6.2 software. The standard curve range for the plasma samples was analyzed using a calibration curve of 0.5-5000 ng/mL. The pharmacokinetic (PK) analysis and interpretation of the results were conducted using Winnonlin Phoenix Software.

Data set [7] has as its system active GTP-bound RALA in BJeLR cells. Briefly: RALA activation assay using RALBP1. The data set is classed as cell-based. As to conditions: 2% FBS. How it is done: BJeLR cells were seeded 16 hours prior to use in 2% FBS in DMEM. […] After 6 hours cells were washed twice with ice cold buffer (25 mM tris, 100 mM NaCl, 1 mM TCEP, 5 mM MgCl2, 0.1% tween-20 and 1 protease inhibitor/25 mL). Cells were scrapped, pelleted at 13,000 rpm for 10 minutes at 4° C., then passed through a 26 gauge needle several times. The solution was spun down a second time at 13,000 rpm for 15 minutes at 4° C., to remove unlysed cells and debris. RALBP1 agarose beads (EMD Millipore) were then added to the lysate and the solution was rotated at 4° C. for 2 hours. The solutions were spun down at 1500×g for 2 minutes and the supernatant was removed by syringe. The beads were washed twice by this process with buffer, then resuspended in 2.5×SDS.

T1 sequence (P11233 whole entry): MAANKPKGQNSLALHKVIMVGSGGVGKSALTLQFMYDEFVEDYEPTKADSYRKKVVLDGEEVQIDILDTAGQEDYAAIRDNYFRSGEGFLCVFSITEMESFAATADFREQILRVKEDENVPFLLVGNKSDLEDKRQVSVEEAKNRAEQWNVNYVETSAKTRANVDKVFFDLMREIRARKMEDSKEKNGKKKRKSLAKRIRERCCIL
Sequence of GppNHp-loaded RHEB (Q15382 whole entry): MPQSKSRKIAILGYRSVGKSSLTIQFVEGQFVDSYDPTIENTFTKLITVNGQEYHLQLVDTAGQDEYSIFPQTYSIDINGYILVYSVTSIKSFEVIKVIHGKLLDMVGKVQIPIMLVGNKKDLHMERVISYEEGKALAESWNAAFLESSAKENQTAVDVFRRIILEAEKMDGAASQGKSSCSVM

As for `NC1(C(=O)NCCCn2cc(-c3ccc(OC(F)(F)F)cc3)c3cc(CN4CCN(Cc5c(Cl)cccc5Cl)CC4)ccc32)CCNCC1` [Compound 31MEW44, 4-amino-N-(3-(5-((4-(2,6-dichlorobenzyl)piperazin-1-yl)methyl)-3-(4-(trifluoromethoxy)phenyl)-1H-indol-1-yl)propyl)piperidine-4-carboxamide], the binding entry in data set [1] and in data set [2] was “no binding was observed” each time. For the same compound, the “size of multicellular tumor spheroids” value in data set [3] was “decreased in size in a dose-dependent manner”. In addition, the tumor size entry was “almost complete elimination of the tumor” in data set [4] (intravenous and intraperitoneal injections 30 mg/kg, 4 IV and 6 IP doses); “almost complete elimination of the tumor” in data set [4] (orally 180 mg/kg, 10 doses over two weeks). Moreover, the toxicity result in data set [5] (30 mg/kg daily intraperitoneal injection) is “No overt toxicity”. Moreover, the “tumor pERK levels lower than vehicle” value in data set [5] (Western blotting of xenografts, 30 mg/kg i.p.) is “about 70%”. Also, the half-life in data set [6] (intravenous delivery, no elimination) was above 12 h; in data set [6] (oral delivery) it was 3.1 h. The “active GTP-bound RALA” value in data set [7] is “decreased levels of active GTP-bound RALA”.

By half-life is commonly meant how long it takes for the measured level to halve.
